Data: US12053533B2, “Fluorescent probe for cyclooxygenase-2” (The Board of Trustees of the University of Illinois, priority 2020, dated 2024)

What was measured:
[1] = system: endogenous COX-2 activity in RAW 264.7 macrophage cells; test: Confocal live-cell imaging of LPS-activated RAW 264.7 macrophages; format: cell-based, mouse; details: CoxFluor 10 μM, 4 h, LPS 1 μg/mL, BSO 200 μM
Method: Confocal Fluorescence Live-Cell Imaging of Lipopolysaccharide-activated RAW 264.7 Macrophages. The surface exposed substrate of 4-well chambered cover glasses was coated with R&D Systems™ Cultrex Poly-L-Lysine (Fisher Scientific) using the manufacturer's protocol. Plates were seeded with 180,000 cells per well (500 μL of 360,000 cells/mL in DMEM media supplemented with 10% FBS) and were allowed to incubate for 38 h at 37° C. with 5% CO2 (70-80% confluent). […] The cells were incubated under these conditions for 17 h at 37° C. with 5% CO2. […] Finally, the cells were stained under identical conditions supplemented with 10 μM CoxFluor (500 μL final volume containing 1.5% DMSO final concentration). After incubation at 37° C. with 5% CO2 for 4 h, each well was imaged using a Zeiss LSM 700 confocal microscope (n=3 technical replicates; n=4 biological replicates). Images were quantified over the entire imaging window, without any processing, using ImageJ (v. 1.51, NIH). All images were processed using identical parameters and false colored (LUT: jet.lut) in ImageJ.

[2] = Photophysical characterization; format: physicochemical
Method: Photophysical Characterization. Extinction coefficients and fluorescence quantum yields were acquired (n=3) and reported as the average with a relative standard deviation less than 15%. Extinction coefficients were acquired by titrating compound in 100 mM Tris-HCl (pH 8.0) within the linear range. Fluorescence quantum yields were obtained using the modified method for relative fluorescence quantum yield. Dye was titrated into the solution and the absorbance and emission were monitored (excitation at 540 nm). The absorbance was maintained below 0.1 to limit secondary absorbance events. Total emission spectra were integrated, and the relative quantum yield was calculated relative to Rhodamine B (ϕ=0.70, ethanol). The refractive index of 100 mM Tris-HCl (pH 8.0) was measured to be 1.33514.

SMILES: CCCCC/C=C\C/C=C\C/C=C\C/C=C\CCCC(=O)N1c2ccc(O)cc2Oc2cc(O)ccc21 [CoxFluor]
- fluorescent enhancement for LPS-stimulated cells relative to the control [1]: 1.2 fold
- extinction coefficient ε at 572 nm ([2]; 100 mM Tris-HCl pH 8.0): 820 M⁻¹ cm⁻¹
- fluorescence quantum yield ΦF ([2]; 100 mM Tris-HCl pH 8.0, relative to Rhodamine B): 0.29
